This is an account of results in patent US20240025919A1, “AZA-TETRACYCLIC OXAZEPINE COMPOUNDS AND USES THEREOF” (Genentech, Inc., priority 2022, published 2024).

One assay concerns the target KRAS G12D (Homo sapiens (Human), UniProt P01116, G12D). Description: KRAS G12D LoEnz Biochemical Assay, BODIPY-GDP Exchange TR-FRET (SOS1-mediated nucleotide exchange). The following applies: read-out: KRas (G12D) GDP HTRF IC50. In general terms: Time-resolved FRET reads energy transfer from a long-lived donor to a nearby acceptor.
The next assay has as its target KRAS WT (Homo sapiens (Human), UniProt P01116). In words: KRAS WT Biochemical Assay, BODIPY-GDP Exchange TR-FRET (Example 501; 3 nM KRAS WT, 3 nM SOS1, 60-minute incubation). To be noted: read-out: KRas HTRF IC50. The essentials: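 SOS1-mediated exchange assay: 3 nM biotin-KRAS WT with terbium-streptavidin, started with 3 nM SOS1 and 300 nM BODIPY-GDP, HEPES pH 7.5 with MgCl2. TR-FRET (520/490 nm) read after 60 min; normalized to DMSO and full-inhibition control, IC50 from 4-parameter Hill fit.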

The term IC50 denotes the concentration needed to halve the response being measured.

Chain of KRAS G12D (P01116-2 other isoform, or with tags, fused parts or gaps G12D): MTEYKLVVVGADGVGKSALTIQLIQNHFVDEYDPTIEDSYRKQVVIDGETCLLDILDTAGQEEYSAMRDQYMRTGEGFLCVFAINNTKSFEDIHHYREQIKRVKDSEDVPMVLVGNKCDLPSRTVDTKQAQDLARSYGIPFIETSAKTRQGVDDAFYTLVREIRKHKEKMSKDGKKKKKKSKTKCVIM
Chain of KRAS WT (P01116-2 other isoform, or with tags, fused parts or gaps): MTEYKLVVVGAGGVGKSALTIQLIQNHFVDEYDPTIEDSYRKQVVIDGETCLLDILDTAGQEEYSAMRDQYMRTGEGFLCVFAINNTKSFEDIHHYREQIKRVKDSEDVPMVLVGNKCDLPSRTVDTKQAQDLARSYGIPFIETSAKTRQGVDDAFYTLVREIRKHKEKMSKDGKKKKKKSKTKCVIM

`Cc1nc(N)cc(-c2nc3c4c(nc(OCC5(CN6CCC(C(F)F)C6)CC5)nc4c2F)N2C[C@H]4CC[C@H](N4)[C@H]2[C@H](C)O3)c1C(F)(F)F` (stereo partly drawn) [Compound 276, 4-((5S,5aS,6S,9R)-12-((1-((3-(difluoromethyl)pyrrolidin-1-yl)methyl)cyclopropyl)methoxy)-1-fluoro-5-methyl-5a,6,7,8,9,10-hexahydro-5H-4-oxa-3,10a,11,13,14-pentaaza-6,9-methanonaphtho[1,8-ab]heptalen-2-yl)-6-methyl-5-(trifluoromethyl)pyridin-2-amine]: the IC50 at KRAS G12D was 0.26 nM; on KRAS WT, 8.91 nM.

With `Cc1c(F)c(N)cc(-c2nc3c4c(nc(OCC56CCN5CC(F)(F)C6)nc4c2F)N2C[C@H]4CC[C@H](N4)[C@H]2[C@H](C(F)(F)F)O3)c1C(F)(F)F` (mixture of isomers) [Compound 244, 5-((5R,5aS,6S,9R)-12-((3,3-Difluoro-1-azabicyclo[3.2.0]heptan-5-yl)methoxy)-1-fluoro-5-(trifluoromethyl)-5a,6,7,8,9,10-hexahydro-5H-4-oxa-3,10a,11,13,14-pentaaza-6,9-methanonaphtho[1,8-ab]heptalene-2-yl)-2-fluoro-3-methyl-4-(trifluoromethyl)aniline], the 50% inhibitory concentration (IC50) at KRAS G12D was determined as 0.52 nM; at KRAS WT, 11.9 nM.

Consider `Cc1nc(N)cc(-c2nc3c4c(nc(OCC5(CN6CCOC(C(F)(F)F)C6)CC5)nc4c2F)N2C[C@H]4CC[C@H](N4)[C@H]2[C@H](C)O3)c1C(F)(F)F` (stereo partly drawn) [Compound 267, 4-((5S,5aS,6S,9R)-1-fluoro-5-methyl-12-((1-((2-(trifluoromethyl)morpholino)methyl)cyclopropyl)methoxy)-5a,6,7,8,9,10-hexahydro-5H-4-oxa-3,10a,11,13,14-pentaaza-6,9-methanonaphtho[1,8-ab]heptalene-2-yl)-6-methyl-5-(trifluoromethyl)pyridin-2-amine], for which the half-inhibitory concentration (IC50) on KRAS G12D is 2.98 nM; on KRAS WT, 609 nM.

Turning to `Cc1nc(N)cc(-c2nc3c4c(nc(OCC5(CN6CC(C(F)F)C6)CC5)nc4c2F)N2C[C@H]4CC[C@H](N4)[C@H]2[C@H](C)O3)c1C(F)(F)F` [Compound 274, 4-((5S,5aS,6S,9R)-12-((1-((3-(difluoromethyl)108eptalene-1-yl)methyl)cyclopropyl)methoxy)-1-fluoro-5-methyl-5a,6,7,8,9,10-hexahydro-5H-4-oxa-3,10a,11,13,14-pentaaza-6,9-methanonaphtho[1,8-ab]heptalene-2-yl)-6-methyl-5-(trifluoromethyl)pyridin-2-amine], the IC50 at KRAS G12D came to 0.34 nM; on KRAS WT, 25.7 nM.

With `Cc1nc(N)c(F)c(-c2nc3c4c(nc(OC[C@@]56CCCN5CC5(CC5(F)F)C6)nc4c2F)N2C[C@H]4CC[C@H](N4)[C@H]2[C@H](C(F)(F)F)O3)c1C(F)(F)F` (stereo partly drawn) [Compound 257, 4-((5R,5aS,6S,9R)-12-(((7a'S)-2,2-Difluorodihydro-1′H,3′H-spiro[cyclopropane-1,2′-pyrrolizin]-7a′(5′H)-yl)methoxy)-1-fluoro-5-(trifluoromethyl)-5a,6,7,8,9,10-hexahydro-5H-4-oxa-3,10a,11,13,14-pentaaza[6,9]methanonaphtho[1,8-ab]heptalen-2-yl)-3-fluoro-6-methyl-5-(trifluoromethyl)pyridin-2-amine], the half-inhibitory concentration (IC50) on KRAS G12D was 0.89 nM; at KRAS WT, 8.41 nM.

Regarding `Cc1nc(N)c(Cl)c(-c2nc3c4c(nc(OC[C@@]56CCCN5C[C@H](F)C6)nc4c2F)N2C[C@H]4CC[C@H](N4)[C@H]2[C@H](C)O3)c1C(F)(F)F` [Compound 197, 3-Chloro-4-((5S,5aS,6S,9R)-1-fluoro-12-(((2R,7aS)-2-fluorotetrahydro-1H-pyrrolizin-7a(5H)-yl)methoxy)-5-methyl-5a,6,7,8,9,10-hexahydro-5H-4-oxa-3,10a,11,13,14-pentaaza-6,9-methanonaphtho[1,8-ab]heptalen-2-yl)-6-methyl-5-(trifluoromethyl)pyridin-2-amine], the values for the IC50 on KRAS G12D and on KRAS WT were 0.46 nM and 59.8 nM, respectively.
